According to patent publication US10174016B2 (BAYER AKTIENGESELLSCHAFT, priority 2014, dated 2019):
Like-named read-outs stand apart in the source and are kept apart here.

What was measured:
human P2X2/3 receptor = human P2X2/3 receptor (Homo sapiens (Human), UniProt P56373+Q9UBL9); assay: Intracellular calcium measurement (FLIPR, Fluo-4) of antagonist activity at human P2X2/3 receptors; assay type: cell-based; conditions: human P2X2/3, FLIPR calcium assay, agonist α,β-Me-ATP; read-out: hP2X2/3 IC50
human P2X2/3 receptor, sequence (P56373 whole entry): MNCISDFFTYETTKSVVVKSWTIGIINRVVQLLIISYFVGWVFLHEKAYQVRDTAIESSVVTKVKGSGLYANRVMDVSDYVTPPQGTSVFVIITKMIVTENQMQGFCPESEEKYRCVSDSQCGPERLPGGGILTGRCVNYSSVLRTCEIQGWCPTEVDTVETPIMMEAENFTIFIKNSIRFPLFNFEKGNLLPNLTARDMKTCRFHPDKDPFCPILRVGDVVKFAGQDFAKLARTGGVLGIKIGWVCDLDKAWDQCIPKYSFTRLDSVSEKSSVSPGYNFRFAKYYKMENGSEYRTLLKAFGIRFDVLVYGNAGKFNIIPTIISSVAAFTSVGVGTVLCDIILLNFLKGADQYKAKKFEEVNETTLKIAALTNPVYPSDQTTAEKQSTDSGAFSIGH
human P2X2/3 receptor, sequence (Q9UBL9 whole entry): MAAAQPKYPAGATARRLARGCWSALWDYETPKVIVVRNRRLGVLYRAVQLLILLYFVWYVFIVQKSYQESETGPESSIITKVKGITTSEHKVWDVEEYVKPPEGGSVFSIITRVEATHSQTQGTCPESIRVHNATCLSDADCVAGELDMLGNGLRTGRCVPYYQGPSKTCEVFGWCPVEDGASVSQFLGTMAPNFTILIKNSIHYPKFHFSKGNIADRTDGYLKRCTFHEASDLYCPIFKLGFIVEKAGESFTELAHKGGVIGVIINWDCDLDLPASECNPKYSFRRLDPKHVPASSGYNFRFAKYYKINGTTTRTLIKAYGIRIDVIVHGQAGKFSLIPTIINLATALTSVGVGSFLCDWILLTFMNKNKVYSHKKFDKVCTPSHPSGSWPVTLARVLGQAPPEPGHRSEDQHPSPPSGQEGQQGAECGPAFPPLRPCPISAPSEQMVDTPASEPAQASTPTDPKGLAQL
Method in brief: (§1)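 Cells expressing human P2X3 or P2X2/3, loaded with Fluo-4, preincubated 30 min at 37° C. with compound (1% DMSO final), then challenged with α,β-Me-ATP at its EC80. Peak FLIPR fluorescence over 90 sec gave % response; IC50, maximal inhibition and Hill slope from triplicates.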

human P2X3 receptor = human P2X3 receptor (Homo sapiens (Human), UniProt P56373); assay: Intracellular calcium measurement (FLIPR, Fluo-4) of antagonist activity at human P2X3 receptors; assay type: cell-based; conditions: read-out: hP2X3 IC50
human P2X3 receptor, sequence (P56373 whole entry): as the sequence (P56373 whole entry) above
Method in brief: as §1

[1] = human P2X3, FLIPR calcium assay, agonist α,β-Me-ATP

Row | SMILES | IC50 (human P2X2/3 receptor) [µM] | IC50 (human P2X3 receptor; [1]) [µM] | IC50 (human P2X3 receptor) [µM]
1 | Cc1cnc(-c2cc(OCC3CCOCC3)cc(C(=O)N[C@H](C)c3cnc(C(F)(F)F)nc3)c2)s1 [Example 98, 3-(5-Methyl-1,3-thiazol-2-yl)-5-(tetrahydro-2H-pyran-4-ylmethoxy)-N-[(1R)-1-[2-(trifluoromethyl)pyrimidin-5-yl]ethyl]benzamide] | 0.019 | 0.001 | 
2 | Cc1ccc([C@@H](C)NC(=O)c2cc(OCC3CCOCC3)cc(-c3ncc(C)s3)c2)nn1 [Example 99, N-[(1R)-1-(6-Methylpyridazin-3-yl)ethyl]-3-(5-methyl-1,3-thiazol-2-yl)-5-(tetrahydro-2H-pyran-4-ylmethoxy)benzamide] | 0.027 | 0.002 | 
3 | Cc1cc(Oc2cc(C(=O)N[C@H](C)c3ccc(C)nn3)cc(-c3ncc(C)s3)c2)ccn1 [Example 100, N-[(1R)-1-(6-Methylpyridazin-3-yl)ethyl]-3-[(2-methylpyridin-4-yl)oxy]-5-(5-methyl-1,3-thiazol-2-yl)benzamide] | 0.016 | 0.006 | 
4 | Cc1cc(Oc2cc(C(=O)NCc3ccc(C)nn3)cc(-c3ncc(C)s3)c2)ccn1 [Example 101, N-[(6-Methylpyridazin-3-yl)methyl]-3-[(2-methylpyridin-4-yl)oxy]-5-(5-methyl-1,3-thiazol-2-yl)benzamide] | 0.06 | 0.015 | 
5 | Cc1cnc([C@@H](C)NC(=O)c2cc(Oc3ccnc(C)c3)cc(-c3ncc(C)s3)c2)cn1 [Example 102, N-[(1R)-1-(5-Methylpyrazin-2-yl)ethyl]-3-[(2-methylpyridin-4-yl)oxy]-5-(5-methyl-1,3-thiazol-2-yl)benzamide] | 0.057 | 0.01 | 
6 | Cc1cc(Oc2cc(C(=O)N[C@H](C)c3cnc(C(F)(F)F)nc3)cc(-c3ncc(C)s3)c2)ccn1 [Example 103, 3-[(2-Methylpyridin-4-yl)oxy]-5-(5-methyl-1,3-thiazol-2-yl)-N-{(1R)-1-[2-(trifluoromethyl)pyrimidin-5-yl]ethyl}benzamide] | 0.014 | 0.002 | 
7 | Cc1cnc(CNC(=O)c2cc(Oc3ccnc(C)c3)cc(-c3ncc(C)s3)c2)cn1 [Example 104, N-[(5-Methylpyrazin-2-yl)methyl]-3-[(2-methylpyridin-4-yl)oxy]-5-(5-methyl-1,3-thiazol-2-yl)benzamide] | 0.377 | 0.051 | 
8 | Cc1cc(Oc2cc(C(=O)N[C@H](C)c3cnc(C)nc3)cc(-c3ncc(C)s3)c2)ccn1 [Example 106, 3-[(2-methylpyridin-4-yl)oxy]-N-[(1R)-1-(2-methylpyrimidin-5-yl)ethyl]-5-(5-methyl-1,3-thiazol-2-yl)benzamide] | 0.041 | 0.016 | 
9 | Cc1ccc([C@@H](C)NC(=O)c2cc(Oc3ccnc(C)c3)cc(-c3ncc(C)s3)c2)cn1 [Example 107, N-[(1R)-1-(6-methylpyridin-3-yl)ethyl]-3-[(2-methylpyridin-4-yl)oxy]-5-(5-methyl-1,3-thiazol-2-yl)benzamide] | 0.017 | 0.009 | 
10 | Cc1ccc(Oc2cc(C(=O)N[C@H](C)c3cnc(C(F)(F)F)nc3)cc(-c3ncc(C)s3)c2)cn1 [Example 108, 3-[(6-Methylpyridin-3-yl)oxy]-5-(5-methyl-1,3-thiazol-2-yl)-N-{(1R)-1-[2-(trifluoromethyl)pyrimidin-5-yl]ethyl}benzamide] | 0.083 | 0.011 | 
11 | Cc1cnc([C@@H](C)NC(=O)c2cc(Oc3nnc(C)s3)cc(-c3ncc(C)s3)c2)cn1 [Example 109, N-[(1R)-1-(5-Methylpyrazin-2-yl)ethyl]-3-[(5-methyl-1,3,4-thiadiazol-2-yl)oxy]-5-(5-methyl-1,3-thiazol-2-yl)benzamide] | 2.41 | 0.235 | 
12 | Cc1ccc([C@@H](C)NC(=O)c2cc(Oc3nnc(C)s3)cc(-c3ncc(C)s3)c2)nn1 [Example 110, N-[(1R)-1-(6-Methylpyridazin-3-yl)ethyl]-3-[(5-methyl-1,3,4-thiadiazol-2-yl)oxy]-5-(5-methyl-1,3-thiazol-2-yl)benzamide] | 1.45 | 0.114 | 
13 | Cc1cnc(-c2cc(Oc3nnc(C)s3)cc(C(=O)N[C@H](C)c3cnc(C(F)(F)F)nc3)c2)s1 [Example 111, 3-[(5-Methyl-1,3,4-thiadiazol-2-yl)oxy]-5-(5-methyl-1,3-thiazol-2-yl)-N-[(1R)-1-[2-(trifluoromethyl)pyrimidin-5-yl]ethyl]benzamide] | 0.38 | 0.016 | 
14 | Cc1cnc([C@@H](C)NC(=O)c2cc(Oc3nccs3)cc(-c3ncc(C)s3)c2)cn1 [Example 112, N-[(1R)-1-(5-Methylpyrazin-2-yl)ethyl]-3-(5-methyl-1,3-thiazol-2-yl)-5-(1,3-thiazol-2-yloxy)benzamide] | 0.772 |  | 0.061
15 | Cc1ccc([C@@H](C)NC(=O)c2cc(Oc3nccs3)cc(-c3ncc(C)s3)c2)nn1 [Example 113, N-[(1R)-1-(6-Methylpyridazin-3-yl)ethyl]-3-(5-methyl-1,3-thiazol-2-yl)-5-(1,3-thiazol-2-yloxy)benzamide] | 0.387 | 0.043 | 
16 | Cc1ccc([C@@H](C)NC(=O)c2cc(Oc3nccs3)cc(-c3ncc(C)s3)c2)cn1 [Example 114, N-[(1R)-1-(6-Methylpyridin-3-yl)ethyl]-3-(5-methyl-1,3-thiazol-2-yl)-5-(1,3-thiazol-2-yloxy)benzamide] | 0.414 | 0.038 | 
17 | COC(C)(C)COc1cc(C(=O)N[C@H](C)c2ccc(Cl)cn2)cc(-c2ncc(Cl)s2)c1 [Example 115, N-[(1R)-1-(5-Chloropyridin-2-yl)ethyl]-3-(5-chloro-1,3-thiazol-2-yl)-5-(2-methoxy-2-methylpropoxy)benzamide] | 0.187 | 0.015 | 
18 | COC(C)(C)COc1cc(C(=O)N[C@H](C)c2cnc(C(F)(F)F)nc2)cc(-c2ncc(Cl)s2)c1 [Example 116, 3-(5-Chloro-1,3-thiazol-2-yl)-5-(2-methoxy-2-methylpropoxy)-N-{(1R)-1-[2-(trifluoromethyl)pyrimidin-5-yl]ethyl}benzamide] | 6.43 | 0.21 | 
19 | COC(C)(C)COc1cc(C(=O)N[C@H](C)c2cnc(C)cn2)cc(-c2ncc(Cl)s2)c1 [Example 117, 3-(5-Chloro-1,3-thiazol-2-yl)-5-(2-methoxy-2-methylpropoxy)-N-[(1R)-1-(5-methylpyrazin-2-yl)ethyl]benzamide] | 0.883 | 0.036 | 
20 | Cc1ccc(CNC(=O)c2cc(OCC3CCOCC3)cc(-c3ncc(C(F)(F)F)s3)c2)nn1 [Example 118, N-[(6-Methylpyridazin-3-yl)methyl]-3-(tetrahydro-2H-pyran-4-ylmethoxy)-5-[5-(trifluoromethyl)-1,3-thiazol-2-yl]benzamide] | 1.13 | 0.198 | 
21 | Cc1ccc(CNC(=O)c2cc(OCC3CCOCC3)cc(-c3ncc(C4CCC4)s3)c2)nn1 [Example 119, 3-(5-Cyclobutyl-1,3-thiazol-2-yl)-N-[(6-methylpyridazin-3-yl)methyl]-5-(tetrahydro-2H-pyran-4-ylmethoxy)benzamide] | 0.19 | 0.024 | 
22 | C[C@@H](NC(=O)c1cc(OCC2CCOCC2)cc(-c2ncc(C3CCC3)s2)c1)c1cnc(C(F)(F)F)nc1 [Example 120, 3-(5-Cyclobutyl-1,3-thiazol-2-yl)-5-(tetrahydro-2H-pyran-4-ylmethoxy)-N-{(1R)-1-[2-(trifluoromethyl)pyrimidin-5-yl]ethyl}benzamide] | 0.104 | 0.014 | 
